Source: ChEMBL document CHEMBL5532655, “Discovery of (R)-4-(8-methoxy-2-methyl-1-(1-phenylethy)-1H-imidazo[4,5-c]quinnolin-7-yl)-3,5-dimethylisoxazole as a potent and selective BET inhibitor for treatment of acute myeloid leukemia (AML) guided by FEP calculation” (Eur J Med Chem, 2024)

How the values were obtained:
MV4-11 [1] = assay: cells; details: Homo sapiens, MV4-11, 48 h
Description: Antiproliferative activity against human MV4-11 cells assessed as inhibition of cell growth incubated for 48 hrs by MTT assay

MM1.S = assay: cells; details: Homo sapiens, 48 h
Description: Antiproliferative activity against human MM1.S cells assessed as inhibition of cell growth incubated for 48 hrs by MTT assay

MOLM-13 = assay: cells; details: Homo sapiens, MOLM-13, 48 h
Description: Antiproliferative activity against human MOLM-13 cells assessed as inhibition of cell growth incubated for 48 hrs by MTT assay

Jurkat = assay: cells; details: Homo sapiens, 48 h
Description: Antiproliferative activity against human Jurkat cells assessed as inhibition of cell growth incubated for 48 hrs by MTT assay

MV4-11 [2] = assay: Induction of apoptosis in human MV4-11 cells assessed as early apoptotic cells at 1.25 uM incubated for 24 hrs by annexin V-FITC/PI staining based flow cytometric analysis (reference value: 0%); assay type: functional
MV4-11 [3] = assay: Induction of cell cycle arrest in human MV4-11 cells assessed as accumulation of cells at S phase at 1.25 uM incubated for 24 hrs by propidium iodide staining flow cytometric analysis (reference value: 13.08 %); assay type: functional
MV4-11 [4] = assay: Induction of cell cycle arrest in human MV4-11 cells assessed as accumulation of cells at S phase at 0.3125 uM incubated for 24 hrs by propidium iodide staining flow cytometric analysis (reference value: 13.08 %); assay type: functional
MV4-11 [5] = assay: Induction of apoptosis in human MV4-11 cells assessed as viable cells at 10 uM incubated for 24 hrs by annexin V-FITC/PI staining based flow cytometric analysis (reference value: 97%); assay type: functional
MV4-11 [6] = assay: Induction of apoptosis in human MV4-11 cells assessed as necrotic cells at 5 uM incubated for 24 hrs by annexin V-FITC/PI staining based flow cytometric analysis (reference value: 2.35 %); assay type: functional
MV4-11 [7] = assay: Antitumor activity against human MV4-11 cells xenografted in BALB/c mouse assessed as tumor growth inhibition relative to control; assay type: functional
MV4-11 [8] = assay: Induction of cell cycle arrest in human MV4-11 cells assessed as accumulation of cells at G0/G1 phase at 2.5 uM incubated for 24 hrs by propidium iodide staining flow cytometric analysis (reference value: 34.97 %); assay type: functional
MV4-11 [9] = assay: Induction of cell cycle arrest in human MV4-11 cells assessed as accumulation of cells at G0/G1 phase at 0.625 uM incubated for 24 hrs by propidium iodide staining flow cytometric analysis (reference value: 34.97 %); assay type: functional
MV4-11 [10] = assay: Induction of cell cycle arrest in human MV4-11 cells assessed as accumulation of cells at G0/G1 phase at 5 uM incubated for 24 hrs by propidium iodide staining flow cytometric analysis (reference value: 34.97 %); assay type: functional
MV4-11 [11] = assay: Induction of cell cycle arrest in human MV4-11 cells assessed as accumulation of cells at G0/G1 phase at 1.25 uM incubated for 24 hrs by propidium iodide staining flow cytometric analysis (reference value: 34.97 %); assay type: functional
MV4-11 [12] = assay: Induction of apoptosis in human MV4-11 cells assessed as late apoptotic cells at 5 uM incubated for 24 hrs by annexin V-FITC/PI staining based flow cytometric analysis (reference value: 0.04 %); assay type: functional
MV4-11 [13] = assay: Induction of apoptosis in human MV4-11 cells assessed as early apoptotic cells at 10 uM incubated for 24 hrs by annexin V-FITC/PI staining based flow cytometric analysis (reference value: 0%); assay type: functional
Homo sapiens [14] = organism: Homo sapiens; details: time 30.0 min
MV4-11 [15] = assay: Induction of cell cycle arrest in human MV4-11 cells assessed as accumulation of cells at G2/M phase at 1.25 uM incubated for 24 hrs by propidium iodide staining flow cytometric analysis (reference value: 51.43 %); assay type: functional
MV4-11 [16] = assay: Induction of apoptosis in human MV4-11 cells assessed as late apoptotic cells at 1.25 uM incubated for 24 hrs by annexin V-FITC/PI staining based flow cytometric analysis (reference value: 0.04 %); assay type: functional
MV4-11 [17] = assay: Induction of apoptosis in human MV4-11 cells assessed as late apoptotic cells at 10 uM incubated for 24 hrs by annexin V-FITC/PI staining based flow cytometric analysis (reference value: 0.04 %); assay type: functional
MV4-11 [18] = assay: Induction of cell cycle arrest in human MV4-11 cells assessed as accumulation of cells at G2/M phase at 0.3125 uM incubated for 24 hrs by propidium iodide staining flow cytometric analysis (reference value: 51.43 %); assay type: functional
MV4-11 [19] = assay: Induction of apoptosis in human MV4-11 cells assessed as viable cells at 2.5 uM incubated for 24 hrs by annexin V-FITC/PI staining based flow cytometric analysis (reference value: 97%); assay type: functional
MV4-11 [20] = assay: Induction of apoptosis in human MV4-11 cells assessed as late apoptotic cells at 0.625 uM incubated for 24 hrs by annexin V-FITC/PI staining based flow cytometric analysis (reference value: 0.04 %); assay type: functional
MV4-11 [21] = assay: Induction of cell cycle arrest in human MV4-11 cells assessed as accumulation of cells at G2/M phase at 2.5 uM incubated for 24 hrs by propidium iodide staining flow cytometric analysis (reference value: 51.43 %); assay type: functional
MV4-11 [22] = assay: Induction of cell cycle arrest in human MV4-11 cells assessed as accumulation of cells at G0/G1 phase at 0.3125 uM incubated for 24 hrs by propidium iodide staining flow cytometric analysis (reference value: 34.97 %); assay type: functional
MV4-11 [23] = assay: Induction of apoptosis in human MV4-11 cells assessed as viable cells at 1.25 uM incubated for 24 hrs by annexin V-FITC/PI staining based flow cytometric analysis (reference value: 97%); assay type: functional
MV4-11 [24] = assay: Induction of apoptosis in human MV4-11 cells assessed as necrotic cells at 1.25 uM incubated for 24 hrs by annexin V-FITC/PI staining based flow cytometric analysis (reference value: 2.35 %); assay type: functional
MV4-11 [25] = assay: Induction of apoptosis in human MV4-11 cells assessed as early apoptotic cells at 2.5 uM incubated for 24 hrs by annexin V-FITC/PI staining based flow cytometric analysis (reference value: 0%); assay type: functional
MV4-11 [26] = assay: Induction of apoptosis in human MV4-11 cells assessed as viable cells at 5 uM incubated for 24 hrs by annexin V-FITC/PI staining based flow cytometric analysis (reference value: 97%); assay type: functional
Homo sapiens [27] = organism: Homo sapiens; details: time 30.0 min; remark: listed apart in the source
MV4-11 [28] = assay: Induction of cell cycle arrest in human MV4-11 cells assessed as accumulation of cells at S phase at 0.625 uM incubated for 24 hrs by propidium iodide staining flow cytometric analysis (reference value: 13.08 %); assay type: functional
MV4-11 [29] = assay: Induction of apoptosis in human MV4-11 cells assessed as viable cells at 0.625 uM incubated for 24 hrs by annexin V-FITC/PI staining based flow cytometric analysis (reference value: 97%); assay type: functional
MV4-11 [30] = assay: Induction of apoptosis in human MV4-11 cells assessed as necrotic cells at 10 uM incubated for 24 hrs by annexin V-FITC/PI staining based flow cytometric analysis (reference value: 2.35 %); assay type: functional
MV4-11 [31] = assay: Induction of apoptosis in human MV4-11 cells assessed as necrotic cells at 2.5 uM incubated for 24 hrs by annexin V-FITC/PI staining based flow cytometric analysis (reference value: 2.35 %); assay type: functional
MV4-11 [32] = assay: Induction of apoptosis in human MV4-11 cells assessed as early apoptotic cells at 5 uM incubated for 24 hrs by annexin V-FITC/PI staining based flow cytometric analysis (reference value: 0%); assay type: functional
MV4-11 [33] = assay: Induction of cell cycle arrest in human MV4-11 cells assessed as accumulation of cells at G2/M phase at 5 uM incubated for 24 hrs by propidium iodide staining flow cytometric analysis (reference value: 51.43 %); assay type: functional
MV4-11 [34] = assay: Induction of apoptosis in human MV4-11 cells assessed as late apoptotic cells at 2.5 uM incubated for 24 hrs by annexin V-FITC/PI staining based flow cytometric analysis (reference value: 0.04 %); assay type: functional
Homo sapiens [35] = organism: Homo sapiens; details: time 30.0 min; remark: listed apart in the source
MV4-11 [36] = assay: Induction of apoptosis in human MV4-11 cells assessed as early apoptotic cells at 0.625 uM incubated for 24 hrs by annexin V-FITC/PI staining based flow cytometric analysis (reference value: 0%); assay type: functional
MV4-11 [37] = assay: Induction of cell cycle arrest in human MV4-11 cells assessed as accumulation of cells at S phase at 5 uM incubated for 24 hrs by propidium iodide staining flow cytometric analysis (reference value: 13.08 %); assay type: functional
MV4-11 [38] = assay: Induction of cell cycle arrest in human MV4-11 cells assessed as accumulation of cells at G2/M phase at 0.625 uM incubated for 24 hrs by propidium iodide staining flow cytometric analysis (reference value: 51.43 %); assay type: functional
MV4-11 [39] = assay: Induction of cell cycle arrest in human MV4-11 cells assessed as accumulation of cells at S phase at 2.5 uM incubated for 24 hrs by propidium iodide staining flow cytometric analysis (reference value: 13.08 %); assay type: functional
MV4-11 [40] = assay: Induction of apoptosis in human MV4-11 cells assessed as necrotic cells at 0.625 uM incubated for 24 hrs by annexin V-FITC/PI staining based flow cytometric analysis (reference value: 2.35 %); assay type: functional

COc1cc2c(cc1-c1ccc(C(C)=O)cc1)ncc1nc(C)n([C@@H](C)c3ccccc3)c12
IC50 (MV4-11 [1]): 12.5 µM
IC50 (MM1.S): 11.6 µM
IC50 (MOLM-13): 4.73 µM
IC50 (Jurkat): 12.9 µM

Cc1sc2c(c1C)C(c1ccc(Cl)cc1)=N[C@@H](CC(=O)OC(C)(C)C)c1nnc(C)n1-2
Activity (MV4-11 [2]): 6.52%
Activity (MV4-11 [3]): 19.09%
Activity (MV4-11 [4]): 40.75%
Activity (MV4-11 [5]): 67.33%
Activity (MV4-11 [6]): 0%
TGI (MV4-11 [7]): 52.82%
Activity (MV4-11 [8]): 65.43%
Activity (MV4-11 [9]): 46.96%
IC50 (MV4-11 [1]): 1.3 µM
Activity (MV4-11 [10]): 64.98%
Activity (MV4-11 [11]): 62.73%
Activity (MV4-11 [12]): 4.68%
Activity (MV4-11 [13]): 8.62%
ΔTm (Homo sapiens [14]): 0 °C
Activity (MV4-11 [15]): 18.1%
Activity (MV4-11 [16]): 3.38%
Activity (MV4-11 [17]): 5.04%
Activity (MV4-11 [18]): 11.65%
Activity (MV4-11 [19]): 88.78%
Activity (MV4-11 [20]): 4.15%
Activity (MV4-11 [21]): 11%
Activity (MV4-11 [22]): 46.96%
IC50 (MM1.S): 2.84 µM
Activity (MV4-11 [23]): 80.78%
IC50 (MOLM-13): 1.73 µM
Activity (MV4-11 [24]): 0.03%
Activity (MV4-11 [25]): 7.22%
Activity (MV4-11 [26]): 68.49%
ΔTm (Homo sapiens [27]): 0 °C
Activity (MV4-11 [28]): 40.75%
Activity (MV4-11 [29]): 80.59%
Activity (MV4-11 [30]): 0.06%
IC50 (Jurkat): 16.3 µM
Activity (MV4-11 [31]): 0%
Activity (MV4-11 [32]): 6.72%
Activity (MV4-11 [33]): 11.71%
Activity (MV4-11 [34]): 4.03%
ΔTm (Homo sapiens [35]): 0 °C
Activity (MV4-11 [36]): 6.12%
Activity (MV4-11 [37]): 22.85%
Activity (MV4-11 [38]): 11.65%
Activity (MV4-11 [39]): 23.24%
Activity (MV4-11 [40]): 0.03%

COc1ccc(-n2c(C)nc3cnc4cc(-c5cnc(N)nc5)c(OC)cc4c32)cc1
IC50 (MV4-11 [1]): > 20 µM
IC50 (MM1.S): > 20 µM
IC50 (MOLM-13): > 20 µM
IC50 (Jurkat): > 20 µM

COc1ccc(-n2c(C)nc3cnc4cc(-c5ccc(N)nc5)c(OC)cc4c32)cc1
IC50 (MV4-11 [1]): 9.21 µM
IC50 (MM1.S): 5.78 µM
IC50 (MOLM-13): 11.3 µM
IC50 (Jurkat): 11.2 µM

COc1cc2c(cc1-c1ccc(C)cc1)ncc1nc(C)n([C@@H](C)c3ccccc3)c12
IC50 (MV4-11 [1]): 8.3 µM
IC50 (MM1.S): 6.02 µM
IC50 (MOLM-13): 4.99 µM
IC50 (Jurkat): > 20 µM

COc1cc2c(cc1-c1ccc3nc[nH]c3c1)ncc1nc(C)n([C@@H](C)c3ccccc3)c12
IC50 (MV4-11 [1]): 10.4 µM
IC50 (MM1.S): 8.69 µM
IC50 (MOLM-13): 19.1 µM
IC50 (Jurkat): > 20 µM
